Measurements reported in patent US20260021119A1, “TETRACYCLINE DERIVATIVES” (ICM (INSTITUT DU CERVEAU ET DE LA MOELLE ÉPINIÈRE), priority 2022, published 2026).
“Also recorded” adds a separate entry of the source.

Tests used:
[1] = system: formalin-induced pain behavior; test: Formalin-induced nociceptive pain test; format: in vivo, C57/BL6 mice; conditions: for pain-related responses in the formalin test (overall): mice; for sex dependence of analgesic response: single injection, (C) 10 mg/kg, (Ia) 40 mg/kg, male vs female mice, phase 2
Description: The analgesic effects of the compound of formula (C) described in Example 6 (administered at doses of 5 mg/kg of animal, 10 mg/kg of animal and 20 mg/kg of animal) and the compound of formula (Ia) according to the present invention (administered at doses of 10 mg/kg of animal, 20 mg/kg of animal, and 40 mg/kg of animal) were tested using the formalin-induced nociceptive pain model (as disclosed in the publication Lopes DM, Cater HL, Thakur M et al. “A refinement to the formalin test in mice [version 2; peer review: 2 approved]” F1000Research 2019, 8:891).
To test the anti-pain effects of compounds (Ia) and (C) according to the present invention, a formalin pain test was performed, which consists in subcutaneously injecting 50 μl of a 5.0% formalin solution into the right hind paw of adult C57/BL6 mice (Taylor and Basbaum, J Pain, 2000) before scoring pain behavior. The intensity of pain was estimated by recording the cumulative time (sec) during which animals develop a licking/bitting behavior in response to formalin injection. This response is divided into a transient early (Phase I) phase followed by a more prolonged late (Phase II) phase. Pain scoring is performed by experimenters blinded to test treatments using a video recording of formalin-induced pain behavior.

alpha-synuclein = alpha-synuclein (Homo sapiens, UniProt P37840); test: alpha-synuclein fibrils by transmission electron microscopy (TEM); format: biochemical; conditions: 20 μM compound; vs alpha-synuclein alone
Description: By using transmission electron microscopy (TEM) we studied the alpha-synuclein aggregation in the presence of 20 μM of the compound of formula (Ia) in the same condition described above. For the samples mounting, 5 μL of a 7 μM alpha-synuclein solution were adsorbed onto a formvar carbon film coated copper grids (Electron Microscopy Sciences) and stained with uranyless.

P. aeruginosa PA01 = test: MIC, broth dilution (Example 3); format: cell-based; conditions: Pseudomonas aeruginosa, 18 h at 37° C., MH broth
Description: (§1) Bacterial strains used in this study were: S. aureus (ATCC25923), E. coli (ATCC25922), E. faecalis (ATCC29212) and P. aeruginosa (PA01). Strains were maintained at −80° C. in 15% (v/v) glycerol for cryoprotection. Bacteria were routinely grown in Mueller-Hinton (MH) broth at 37° C.
(§2) The susceptibility of bacterial strains to antibiotics and compounds was determined in microplates using the standard broth dilution method in accordance with the recommendations of the Comité de 1′Antibiogramme de la Société Française de Microbiologie (CA-SFM). (Members of the SFM Antibiogram Committee, R. Int. J. Antimicrob. Agents 2003, 21, 364). Briefly, the Minimal Inhibitory Concentrations (MICs) were determined with an inoculum of 10^5 CFU in 200 μL of MH broth containing two-fold serial dilutions of each drug. […] To determine all MICs, the measurements were independently repeated in triplicate.
(§3) The compound of formula (Ia) according to the invention was tested against clinical isolates Gram-bacteria (P. aeruginosa, E. coli) and Gram+ bacteria (S. aureus, E. faecalis). Minimum inhibitory concentrations (MIC) were tentatively determined and compared to known antibiotic tetracyclines (doxycycline, demeclocycline, chlortetracycline) and to the compound of formula (B) disclosed in Example 1 of the present application. The test was reproduced twice and the average MIC were calculated.

E. coli ATCC 25922 = test: MIC, broth dilution (Example 3); format: cell-based; conditions: Escherichia coli, ATCC25922; 18 h at 37° C., MH broth
Description: as §1, §2, §3

S. aureus ATCC 25923 = test: MIC, broth dilution (Example 3); format: cell-based
Description: as §1, §2, §3

E. faecalis ATCC 29212 = test: MIC, broth dilution (Example 3); format: cell-based; conditions: Enterococcus faecalis, ATCC29212; 18 h at 37° C., MH broth
Description: as §1, §2, §3

[2] = system: p-tau (phosphorylated tau protein at Ser202, Thr205 residues); test: p-tau (AT8) expression in cultured cortical neurons under oxidative stress; format: cell-based, mouse; parameters: key to Reduction of the % of p-tau+ somas: a favorable response, synonymous with a decrease in the number of p-tau+ cell bodies; ++: a favorable response, synonymous with a decrease in the number of p-tau+ cell bodies; +++=reference level; an unfavorable response is represented by a sign “−”, synonymous with an elevation of the number of p-tau+ cell bodies; overexpression of p-tau in cortical cell bodies: dose or concentration left out as unconfirmed
Description: A culture model of cortical neurons from mouse embryonic brain was used, in which neuronal cells were subjected to a maturation step until day in vitro (div) 7, before being gradually exposed to phenol red formulated DMEM/Nutrient mixture F12 Ham supplemented with 20 μg/mL of insulin, and 2 μM of the NMDA receptor blocker MK-801 (DF12i).
Precisely, after 4 days of exposure to DF12i, between 10-15% of surviving neurons show a very strong AT8 immunosignal in their somas while only 1 to 1.5% of neuronal cell bodies are found immunopositive under conditions where oxidative stress is repressed by treatment with bovine apotransferrin (APO; 100 µg/mL, Sigma Aldrich), a glycoprotein with iron chelating properties. Likewise, overexpression of p-tau in cortical cell bodies is reduced by the two non-antibiotic tetracyclines compound of formula (C) ([…]) and compound of formula (Ib) ([…]): see the following Table: […]

| amount of alpha-synuclein fibril (TEM) (alpha-synuclein) | MIC (P. aeruginosa PA01) [µM] | MIC (E. coli ATCC 25922) [µM] | MIC (S. aureus ATCC 25923; Staphylococcus aureus, ATCC25923, 18 h at 37° C., MH broth) [µM] | MIC (E. faecalis ATCC 29212) [µM] | Compound | analgesic effects, phases 1 and 2 ([1]; between 20 and 40 mg/kg, sub-chronic regimen, subcutaneous, male adult C57/BL6 mice) | pain-related responses in the formalin test (overall) [1] | anti-nociceptive effects, both phases ([1]; single injection 40 mg/kg prior to formalin) | sex dependence of analgesic response [1] | activity on S. aureus compared with compound of formula (B) (S. aureus ATCC 25923) | reduction of nociceptive pain, phase 1 and 2 ([1]; 5 mg/kg, sub-chronic regimen (6 subcutaneous injections), male adult C57/BL6 mice, not different from morphine 10 mg/kg) | anti-nociceptive effects, phases 1 and 2 ([1]; single injection 10 mg/kg prior to formalin, not different from morphine 10 mg/kg) | overexpression of p-tau in cortical cell bodies [2] | Reduction of the % of p-tau+ somas ([2]; compounds 3 μM, APO 100 μg/mL, mouse cortical cultures exposed div 7-11 to DF12i) |
| --- | --- | --- | --- | --- | --- | --- | --- | --- | --- | --- | --- | --- | --- | --- |
| clearly decreases | > 200 | > 200 | > 200 | > 200 | C[C@H]1c2cccc(O)c2C(=O)C2=C(O)C3C(=O)C(C(N)=O)=C(O)C[C@@H]3[C@@H](O)[C@@H]21 (stereo partly drawn) [Compound of formula (Ia), (4aS,5R,5aR,6R)-3,5,10,12-tetrahydroxy-6-methyl-1,11-dioxo-1,4,4a,5,5a,6,11,12a-octahydrotetracene-2-carboxamide] | exerted analgesic effects | reduce pain-related responses; also recorded: showed anti-pain effects | exerted anti-nociceptive effects | females responded more effectively | less active | – | – | – | – |
| – | – | – | – | – | NC(=O)C1=C(O)CC2CC3C(=C(O)C2C1=O)C(=O)c1c(O)ccc(Cl)c1[C@H]3O (stereo partly shown) [Compound of formula (C)] | – | reduce pain-related responses; also recorded: showed anti-pain effects | – | male mice exhibited a better analgesic response | – | highly effective | robust anti-nociceptive effects | reduced | +++ |
